Measured values reported in ChEMBL document CHEMBL4507303, “Data for DCP probe TP-004” (2021).

Experiments:
[1] = target: Inhibitor of nuclear factor kappa-B kinase subunit epsilon (Homo sapiens) (UniProt Q14164); conditions: Compound concentration 1000.0 nM
[2] = target: Interleukin-1 receptor-associated kinase 3 (Homo sapiens) (UniProt Q9Y616); conditions: Compound concentration 1000.0 nM
[3] = target: Serine/threonine-protein kinase BRSK2 (Homo sapiens) (UniProt Q8IWQ3); conditions: Compound concentration 1000.0 nM
[4] = system: Receptor-type tyrosine-protein kinase FLT3 (Homo sapiens), P36888 [UNDEFINED MUTATION]; conditions: Compound concentration 1000.0 nM
[5] = target: Sigma non-opioid intracellular receptor 1 (Homo sapiens) (UniProt Q99720); conditions: Compound concentration 10.0 uM
[6] = target: Mitogen-activated protein kinase kinase kinase kinase 2 (Homo sapiens) (UniProt Q12851); conditions: Compound concentration 1000.0 nM
[7] = target: MAP kinase-interacting serine/threonine-protein kinase 1 (Homo sapiens) (UniProt Q9BUB5); conditions: Compound concentration 1000.0 nM
[8] = target: ALK tyrosine kinase receptor (Homo sapiens) (UniProt Q9UM73); conditions: Compound concentration 1000.0 nM
[9] = target: Casein kinase I isoform gamma-1 (Homo sapiens) (UniProt Q9HCP0); conditions: Compound concentration 1000.0 nM
[10] = target: Serine/threonine-protein kinase PLK3 (Homo sapiens) (UniProt Q9H4B4); conditions: Compound concentration 1000.0 nM
[11] = target: Muscarinic acetylcholine receptor M2 (Homo sapiens) (UniProt P08172); conditions: Compound concentration 10.0 uM
[12] = target: Serine/threonine-protein kinase DCLK3 (Homo sapiens) (UniProt Q9C098); conditions: Compound concentration 1000.0 nM
[13] = target: Phosphatidylinositol 4,5-bisphosphate 3-kinase catalytic subunit gamma isoform (Homo sapiens) (UniProt P48736); conditions: Compound concentration 1000.0 nM
[14] = target: Phosphorylase b kinase gamma catalytic chain, skeletal muscle/heart isoform (Homo sapiens) (UniProt Q16816); conditions: Compound concentration 1000.0 nM
[15] = target: Interleukin-1 receptor-associated kinase 1 (Homo sapiens) (UniProt P51617); conditions: Compound concentration 1000.0 nM
[16] = target: Glycogen synthase kinase-3 alpha (Homo sapiens) (UniProt P49840); conditions: Compound concentration 1000.0 nM
[17] = target: Rho-associated protein kinase 2 (Homo sapiens) (UniProt O75116); conditions: Compound concentration 1000.0 nM
[18] = target: Tyrosine-protein kinase JAK1 (Homo sapiens) (UniProt P23458); conditions: Compound concentration 1000.0 nM
[19] = target: Angiopoietin-1 receptor (Homo sapiens) (UniProt Q02763); conditions: Compound concentration 1000.0 nM
[20] = target: Casein kinase I isoform epsilon (Homo sapiens) (UniProt P49674); conditions: Compound concentration 1000.0 nM
[21] = target: Serine/threonine-protein kinase 38 (Homo sapiens) (UniProt Q15208); conditions: Compound concentration 1000.0 nM
[22] = target: Rho-associated protein kinase 1 (Homo sapiens) (UniProt Q13464); conditions: Compound concentration 1000.0 nM
[23] = target: Calcium/calmodulin-dependent protein kinase type II subunit beta (Homo sapiens) (UniProt Q13554); conditions: Compound concentration 1000.0 nM
[24] = system: Mast/stem cell growth factor receptor Kit (Homo sapiens), P10721 [V559D]; conditions: Compound concentration 1000.0 nM
[25] = target: Misshapen-like kinase 1 (Homo sapiens) (UniProt Q8N4C8); conditions: Compound concentration 1000.0 nM
[26] = target: Serine/threonine-protein kinase 36 (Homo sapiens) (UniProt Q9NRP7); conditions: Compound concentration 1000.0 nM
[27] = system: Epidermal growth factor receptor (Homo sapiens), P00533 [T790M]; conditions: Compound concentration 1000.0 nM
[28] = system: Phosphatidylinositol 4,5-bisphosphate 3-kinase catalytic subunit alpha isoform (Homo sapiens), P42336 [H1047L]; conditions: Compound concentration 1000.0 nM
[29] = target: Vascular endothelial growth factor receptor 3 (Homo sapiens) (UniProt P35916); conditions: Compound concentration 1000.0 nM
[30] = target: Serine/threonine-protein kinase SIK2 (Homo sapiens) (UniProt Q9H0K1); conditions: Compound concentration 1000.0 nM
[31] = target: Muscarinic acetylcholine receptor M5 (Homo sapiens) (UniProt P08912); conditions: Compound concentration 10.0 uM
[32] = target: Serine/threonine-protein kinase PLK2 (Homo sapiens) (UniProt Q9NYY3); conditions: Compound concentration 1000.0 nM
[33] = target: Tyrosine-protein kinase Srms (Homo sapiens) (UniProt Q9H3Y6); conditions: Compound concentration 1000.0 nM
[34] = system: Tyrosine-protein kinase ABL1 (Homo sapiens), P00519 [Q252H]; conditions: Compound concentration 1000.0 nM
[35] = system: Epidermal growth factor receptor (Homo sapiens), P00533 [UNDEFINED MUTATION]; conditions: Compound concentration 1000.0 nM
[36] = target: Casein kinase I isoform alpha-like (Homo sapiens) (UniProt Q8N752); conditions: Compound concentration 1000.0 nM
[37] = target: STE20-like serine/threonine-protein kinase (Homo sapiens) (UniProt Q9H2G2); conditions: Compound concentration 1000.0 nM
[38] = target: SRSF protein kinase 1 (Homo sapiens) (UniProt Q96SB4); conditions: Compound concentration 1000.0 nM
[39] = target: NUAK family SNF1-like kinase 1 (Homo sapiens) (UniProt O60285); conditions: Compound concentration 1000.0 nM
[40] = target: Serine/threonine-protein kinase DCLK1 (Homo sapiens) (UniProt O15075); conditions: Compound concentration 1000.0 nM
[41] = target: Ephrin type-B receptor 2 (Homo sapiens) (UniProt P29323); conditions: Compound concentration 1000.0 nM
[42] = target: Serine/threonine-protein kinase 26 (Homo sapiens) (UniProt Q9P289); conditions: Compound concentration 1000.0 nM
[43] = target: Tyrosine-protein kinase CSK (Homo sapiens) (UniProt P41240); conditions: Compound concentration 1000.0 nM
[44] = target: Mitogen-activated protein kinase 8 (Homo sapiens) (UniProt P45983); conditions: Compound concentration 1000.0 nM
[45] = target: Casein kinase I isoform gamma-2 (Homo sapiens) (UniProt P78368); conditions: Compound concentration 1000.0 nM
Casein kinase I isoform gamma-2 (Homo sapiens), sequence (P78368 whole entry, looked up, canonical isoform): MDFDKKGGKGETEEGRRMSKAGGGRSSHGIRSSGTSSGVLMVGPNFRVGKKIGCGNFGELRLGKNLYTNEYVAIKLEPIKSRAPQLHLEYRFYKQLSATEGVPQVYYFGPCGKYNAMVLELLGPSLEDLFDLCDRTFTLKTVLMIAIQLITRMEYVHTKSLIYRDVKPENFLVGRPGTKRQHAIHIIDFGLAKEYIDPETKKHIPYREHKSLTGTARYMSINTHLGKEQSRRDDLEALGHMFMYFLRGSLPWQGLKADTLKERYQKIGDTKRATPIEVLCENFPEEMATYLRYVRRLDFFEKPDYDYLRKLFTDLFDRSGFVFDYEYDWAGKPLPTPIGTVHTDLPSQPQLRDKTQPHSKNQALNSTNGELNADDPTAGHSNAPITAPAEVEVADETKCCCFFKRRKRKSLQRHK

Serine/threonine-protein kinase 38 (Homo sapiens), sequence (Q15208 2-465 limits assumed): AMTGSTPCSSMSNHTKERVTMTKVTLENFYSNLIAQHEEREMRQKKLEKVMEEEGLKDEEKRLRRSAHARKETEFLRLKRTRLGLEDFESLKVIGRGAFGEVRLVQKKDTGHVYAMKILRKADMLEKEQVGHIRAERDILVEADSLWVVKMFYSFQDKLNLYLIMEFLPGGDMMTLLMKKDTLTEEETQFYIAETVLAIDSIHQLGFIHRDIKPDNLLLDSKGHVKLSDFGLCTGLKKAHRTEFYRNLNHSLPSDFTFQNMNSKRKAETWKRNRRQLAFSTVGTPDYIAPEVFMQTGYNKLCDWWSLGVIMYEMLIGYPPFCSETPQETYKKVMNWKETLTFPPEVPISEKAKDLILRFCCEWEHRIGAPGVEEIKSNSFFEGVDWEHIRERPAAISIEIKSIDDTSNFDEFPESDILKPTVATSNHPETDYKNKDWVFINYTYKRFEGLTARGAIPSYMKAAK
Interleukin-1 receptor-associated kinase 3 (Homo sapiens), sequence (Q9Y616 whole entry): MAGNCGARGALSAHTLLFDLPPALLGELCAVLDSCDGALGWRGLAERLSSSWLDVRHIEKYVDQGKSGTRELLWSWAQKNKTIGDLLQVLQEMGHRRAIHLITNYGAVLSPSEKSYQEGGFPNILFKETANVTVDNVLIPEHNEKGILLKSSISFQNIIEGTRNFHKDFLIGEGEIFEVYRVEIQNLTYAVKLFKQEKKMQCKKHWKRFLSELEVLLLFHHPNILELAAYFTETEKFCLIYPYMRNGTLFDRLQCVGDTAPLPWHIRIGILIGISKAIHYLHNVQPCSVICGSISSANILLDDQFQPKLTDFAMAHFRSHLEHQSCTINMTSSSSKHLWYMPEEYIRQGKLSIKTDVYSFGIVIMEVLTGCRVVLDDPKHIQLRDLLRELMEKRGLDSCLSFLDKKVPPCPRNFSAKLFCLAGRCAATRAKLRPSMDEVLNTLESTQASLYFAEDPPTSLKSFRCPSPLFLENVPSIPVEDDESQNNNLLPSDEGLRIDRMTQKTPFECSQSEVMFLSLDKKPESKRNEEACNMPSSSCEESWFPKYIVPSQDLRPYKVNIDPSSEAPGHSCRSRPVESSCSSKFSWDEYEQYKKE
Angiopoietin-1 receptor (Homo sapiens), sequence (Q02763 whole entry, canonical isoform): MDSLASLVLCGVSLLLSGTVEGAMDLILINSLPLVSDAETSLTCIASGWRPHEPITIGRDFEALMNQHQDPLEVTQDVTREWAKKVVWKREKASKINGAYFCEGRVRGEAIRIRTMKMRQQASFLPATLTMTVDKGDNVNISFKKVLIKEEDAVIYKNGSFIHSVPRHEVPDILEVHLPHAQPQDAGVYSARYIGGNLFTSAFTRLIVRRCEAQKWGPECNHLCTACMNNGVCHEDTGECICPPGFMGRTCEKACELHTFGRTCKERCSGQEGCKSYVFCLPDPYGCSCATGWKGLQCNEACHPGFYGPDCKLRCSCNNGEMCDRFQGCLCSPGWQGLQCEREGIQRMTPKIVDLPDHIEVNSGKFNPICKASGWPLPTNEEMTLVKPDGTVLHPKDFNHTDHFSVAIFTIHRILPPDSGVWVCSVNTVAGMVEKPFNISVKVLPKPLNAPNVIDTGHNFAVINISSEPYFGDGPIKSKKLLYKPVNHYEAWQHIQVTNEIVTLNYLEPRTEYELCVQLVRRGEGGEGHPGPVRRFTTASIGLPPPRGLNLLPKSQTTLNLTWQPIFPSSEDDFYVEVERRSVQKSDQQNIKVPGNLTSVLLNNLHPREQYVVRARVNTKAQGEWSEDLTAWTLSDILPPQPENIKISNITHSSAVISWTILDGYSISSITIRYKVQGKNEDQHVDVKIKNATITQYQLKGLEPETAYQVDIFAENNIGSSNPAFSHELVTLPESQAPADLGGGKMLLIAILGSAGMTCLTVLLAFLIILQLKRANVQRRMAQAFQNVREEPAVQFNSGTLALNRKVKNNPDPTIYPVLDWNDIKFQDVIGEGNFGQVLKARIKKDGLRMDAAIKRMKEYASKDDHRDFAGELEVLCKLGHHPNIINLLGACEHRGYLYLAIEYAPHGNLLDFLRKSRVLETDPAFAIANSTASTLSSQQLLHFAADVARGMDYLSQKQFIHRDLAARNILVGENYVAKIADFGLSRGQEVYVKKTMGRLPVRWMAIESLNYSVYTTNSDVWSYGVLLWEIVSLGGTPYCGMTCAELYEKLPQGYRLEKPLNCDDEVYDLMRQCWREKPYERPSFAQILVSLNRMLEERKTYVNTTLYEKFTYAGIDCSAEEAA
Casein kinase I isoform epsilon (Homo sapiens), sequence (P49674 whole entry, looked up, canonical isoform): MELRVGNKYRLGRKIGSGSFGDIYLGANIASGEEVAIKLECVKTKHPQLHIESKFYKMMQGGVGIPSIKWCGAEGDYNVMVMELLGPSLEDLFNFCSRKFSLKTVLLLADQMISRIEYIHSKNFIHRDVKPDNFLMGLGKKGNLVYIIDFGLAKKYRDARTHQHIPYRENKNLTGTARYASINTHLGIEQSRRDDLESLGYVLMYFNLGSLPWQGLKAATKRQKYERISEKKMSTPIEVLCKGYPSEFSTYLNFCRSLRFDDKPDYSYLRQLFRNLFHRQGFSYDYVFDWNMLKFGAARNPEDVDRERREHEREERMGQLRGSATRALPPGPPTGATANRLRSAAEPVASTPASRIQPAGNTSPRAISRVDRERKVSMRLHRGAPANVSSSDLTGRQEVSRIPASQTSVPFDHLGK
ALK tyrosine kinase receptor (Homo sapiens), sequence (Q9UM73 19-1620 limits assumed): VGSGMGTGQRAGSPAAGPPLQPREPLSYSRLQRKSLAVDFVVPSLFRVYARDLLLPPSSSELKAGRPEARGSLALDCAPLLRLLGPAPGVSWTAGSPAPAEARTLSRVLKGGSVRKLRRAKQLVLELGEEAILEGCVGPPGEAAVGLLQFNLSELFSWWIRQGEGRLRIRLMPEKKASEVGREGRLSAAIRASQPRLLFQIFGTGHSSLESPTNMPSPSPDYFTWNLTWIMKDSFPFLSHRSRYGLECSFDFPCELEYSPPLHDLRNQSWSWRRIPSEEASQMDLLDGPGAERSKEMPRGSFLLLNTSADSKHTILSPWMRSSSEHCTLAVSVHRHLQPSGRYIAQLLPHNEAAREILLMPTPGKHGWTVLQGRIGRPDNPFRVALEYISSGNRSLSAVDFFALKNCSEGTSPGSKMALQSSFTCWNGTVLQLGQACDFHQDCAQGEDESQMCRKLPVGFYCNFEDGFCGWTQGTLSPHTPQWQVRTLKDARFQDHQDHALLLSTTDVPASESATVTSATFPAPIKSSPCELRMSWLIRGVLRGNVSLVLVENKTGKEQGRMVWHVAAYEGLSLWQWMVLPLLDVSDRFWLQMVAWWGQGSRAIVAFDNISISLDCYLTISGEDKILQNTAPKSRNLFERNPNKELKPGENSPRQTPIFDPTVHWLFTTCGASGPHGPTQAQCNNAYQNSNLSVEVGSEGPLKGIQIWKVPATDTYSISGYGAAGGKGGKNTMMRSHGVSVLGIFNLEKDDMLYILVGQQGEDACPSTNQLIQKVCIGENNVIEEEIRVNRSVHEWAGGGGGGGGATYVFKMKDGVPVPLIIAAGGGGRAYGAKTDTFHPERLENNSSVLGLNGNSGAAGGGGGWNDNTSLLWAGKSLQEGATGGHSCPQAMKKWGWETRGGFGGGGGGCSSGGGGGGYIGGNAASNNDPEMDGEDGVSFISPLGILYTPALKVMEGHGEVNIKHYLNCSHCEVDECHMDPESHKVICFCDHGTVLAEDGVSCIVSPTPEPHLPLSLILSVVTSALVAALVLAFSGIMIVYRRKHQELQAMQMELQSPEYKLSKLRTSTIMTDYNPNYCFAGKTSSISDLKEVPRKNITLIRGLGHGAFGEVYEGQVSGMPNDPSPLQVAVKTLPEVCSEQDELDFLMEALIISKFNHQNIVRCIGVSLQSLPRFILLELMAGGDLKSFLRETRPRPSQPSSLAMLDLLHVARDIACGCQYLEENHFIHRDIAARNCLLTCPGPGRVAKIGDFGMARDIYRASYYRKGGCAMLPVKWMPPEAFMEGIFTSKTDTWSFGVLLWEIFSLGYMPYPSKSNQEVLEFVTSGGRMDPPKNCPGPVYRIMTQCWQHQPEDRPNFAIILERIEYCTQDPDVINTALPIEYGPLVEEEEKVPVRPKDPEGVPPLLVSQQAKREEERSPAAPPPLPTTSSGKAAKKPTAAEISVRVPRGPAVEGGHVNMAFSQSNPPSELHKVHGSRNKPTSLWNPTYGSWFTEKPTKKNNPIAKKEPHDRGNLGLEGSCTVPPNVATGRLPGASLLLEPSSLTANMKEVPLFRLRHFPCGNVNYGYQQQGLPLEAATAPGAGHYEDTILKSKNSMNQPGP
Tyrosine-protein kinase CSK (Homo sapiens), sequence (P41240 2-450 limits assumed): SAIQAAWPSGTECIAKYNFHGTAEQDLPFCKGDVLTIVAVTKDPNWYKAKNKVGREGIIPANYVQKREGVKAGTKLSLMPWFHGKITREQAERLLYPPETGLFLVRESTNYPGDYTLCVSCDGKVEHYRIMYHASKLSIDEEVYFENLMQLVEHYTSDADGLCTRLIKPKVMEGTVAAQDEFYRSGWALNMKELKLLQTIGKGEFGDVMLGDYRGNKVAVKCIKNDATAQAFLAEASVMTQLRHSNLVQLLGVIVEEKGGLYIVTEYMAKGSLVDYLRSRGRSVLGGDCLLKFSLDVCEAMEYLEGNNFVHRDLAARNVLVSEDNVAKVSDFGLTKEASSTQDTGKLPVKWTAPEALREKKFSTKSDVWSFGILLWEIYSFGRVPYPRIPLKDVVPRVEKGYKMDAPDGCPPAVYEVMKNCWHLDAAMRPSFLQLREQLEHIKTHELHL

Cc1nc(N2CC[C@@H](O)C2)ncc1-c1cc(C(F)(F)F)cc2[nH]ncc12 [TP-004]
inactive: residual activity [1] 89% | residual activity [2] 85% | residual activity [3] 90% | residual activity [4] 69% | inhibition [5] 45.5% | residual activity [6] 76% | residual activity [7] 61% | residual activity [8] 81% | residual activity [9] 78% | residual activity [10] 78% | inhibition [11] -8.94% | residual activity [12] 96% | residual activity [13] 82% | residual activity [14] 81% | residual activity [15] 100% | residual activity [16] 54% | residual activity [17] 77% | residual activity [18] 78% | residual activity [19] 100% | residual activity [20] 79% | residual activity [21] 95% | residual activity [22] 91% | residual activity [23] 100% | residual activity [24] 58% | residual activity [25] 61% | residual activity [26] 100% | residual activity [27] 93% | residual activity [28] 93% | residual activity [29] 100% | residual activity [30] 100% | inhibition [31] 0.643% | residual activity [32] 76% | residual activity [33] 81% | residual activity [34] 91% | residual activity [35] 83% | residual activity [36] 93% | residual activity [37] 98% | residual activity [38] 100% | residual activity [39] 83% | residual activity [40] 100% | residual activity [41] 100% | residual activity [42] 59% | residual activity [43] 100% | residual activity [44] 100% | residual activity [45] 100%
